Measured values taken from patent US12643903B2, “Bifunctional compounds for degradation of EGFR and related methods of use” (BeiGene, Ltd., priority 2020, dated 2026).

Experiments:
EGFR DTC = assay: Cell Degradation 3: EGFR degradation in BaF3 cells (DTC), HTRF assay; type: cell-based; conditions: 16 h treatment, EGFR degradation by HTRF
Procedure: (§1) Cell Degradation 3 Cell Treatment
(§2) BaF3 cells are treated with compounds diluted in 0.2% DMSO, dilution is done according to the following protocol: (1) make 500× stock solution in DMSO from 5 mM by 4-fold dilution, total 8 doses were included; (2) make 2× solution in cell culture medium by transferring 0.5 μl 500× stock solution into 125 μl medium; (3) 30 μl of 2× solution is added to cells and incubate for 16 h.
(§3) After 16 h treatment, add 20 μl 4×lysis buffer to each well; seal the plate and incubate 1 hour at room temperature on a plate shaker; Once the cells are lysed, 16 μL of cell lysate are transferred to a PE 384-well HTRF detection plate (for triple mutant cells, the lysate were diluted by the qual volume 1×lysis buffer before transfer); 4 μL of pre-mixed HTRF antibodies are added to each well; Cover the plate with a plate sealer, spin 1000 rpm for 1 min, Incubate overnight at room temperature; Read on BMG PheraStar with HTRF protocol (337 nm-665 nm-620 nm).
(§4) The IC50 (DC50) value of a compound can be obtained by fitting the following equation Y=Bottom+(TOP−Bottom)/(1+((IC50/X)^hillslope))
(§5) Wherein, X and Y are known values, and IC50, Hillslope, Top and Bottom are the parameters obtained by fitting with software. Y is the inhibition percentage (calculated from the equation), X is the concentration of the compound; IC50 is the concentration of the compound when the 50% inhibition is reached. The smaller the IC50 value is, the stronger the inhibitory ability of the compound is. Vice versa, the higher the IC50 value is, the weaker the ability the inhibitory ability of the compound is; Hillslope represents the slope of the fitted curve, generally around 1*; Bottom represents the minimum value of the curve obtained by data fitting, which is generally 0%±20%; Top represents the maximum value of the curve obtained by data fitting, which is generally 100%±20%. The experimental data were fitted by calculating and analyzing with Dotmatics data analysis software.

EGFR LTC = biological target: T1, EGFR LTC (Homo sapiens, UniProt P00533, C797S/L858R/T790M); assay: Cell Degradation 3: EGFR degradation in BaF3 cells (LTC), HTRF assay; type: cell-based; conditions: 16 h treatment, EGFR degradation by HTRF
T1 construct: expressed in transfected cells; host or cells: BaF3
Procedure: as §1, §2, §3, §4, §5

T1 sequence (P00533 25-1210 T790M/C797S/L858R): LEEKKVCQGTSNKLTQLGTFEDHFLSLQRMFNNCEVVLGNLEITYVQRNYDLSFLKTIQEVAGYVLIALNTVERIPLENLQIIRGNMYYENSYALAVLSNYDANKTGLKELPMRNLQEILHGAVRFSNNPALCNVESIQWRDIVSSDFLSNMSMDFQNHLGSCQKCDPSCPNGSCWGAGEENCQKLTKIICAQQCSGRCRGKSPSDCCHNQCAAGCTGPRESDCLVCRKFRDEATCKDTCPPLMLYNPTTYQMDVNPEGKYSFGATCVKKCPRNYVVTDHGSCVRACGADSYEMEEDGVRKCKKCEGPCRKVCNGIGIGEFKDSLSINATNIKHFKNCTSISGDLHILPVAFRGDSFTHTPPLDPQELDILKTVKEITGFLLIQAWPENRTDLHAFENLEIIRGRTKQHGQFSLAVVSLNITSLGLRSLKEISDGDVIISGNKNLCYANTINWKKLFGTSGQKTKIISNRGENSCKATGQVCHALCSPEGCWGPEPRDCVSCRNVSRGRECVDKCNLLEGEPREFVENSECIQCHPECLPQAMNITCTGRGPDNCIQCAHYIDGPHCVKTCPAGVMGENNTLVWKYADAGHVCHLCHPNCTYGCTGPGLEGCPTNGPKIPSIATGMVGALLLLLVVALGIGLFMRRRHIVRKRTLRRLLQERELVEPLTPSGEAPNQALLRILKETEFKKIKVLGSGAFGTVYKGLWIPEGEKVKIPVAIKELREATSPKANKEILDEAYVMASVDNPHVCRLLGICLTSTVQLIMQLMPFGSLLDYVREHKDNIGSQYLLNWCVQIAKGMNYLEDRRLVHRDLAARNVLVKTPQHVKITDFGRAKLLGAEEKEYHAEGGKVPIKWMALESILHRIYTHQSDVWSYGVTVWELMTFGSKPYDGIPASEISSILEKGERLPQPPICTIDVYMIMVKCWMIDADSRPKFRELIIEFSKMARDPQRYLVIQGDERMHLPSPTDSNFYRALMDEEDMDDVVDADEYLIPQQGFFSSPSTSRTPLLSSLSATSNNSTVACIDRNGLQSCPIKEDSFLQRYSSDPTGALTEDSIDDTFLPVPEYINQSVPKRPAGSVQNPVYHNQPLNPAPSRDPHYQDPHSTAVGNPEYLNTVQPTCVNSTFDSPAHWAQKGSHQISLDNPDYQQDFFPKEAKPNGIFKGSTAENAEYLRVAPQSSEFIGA

DC50 (EGFR DTC)	DC50 (EGFR LTC)	SMILES
4 nM	18 nM	COc1cc(N2CCC(N3CCN(CCc4cc(F)c(C5CCC(=O)NC5=O)c(F)c4)CC3=O)CC2)c(C)cc1Nc1ncc(Br)c(Nc2cccc3c2N(S(C)(=O)=O)CC3)n1 (centres unmarked) [Example 185, 3-(4-(2-(4-(1-(4-((5-bromo-4-((1-(methylsulfonyl)indolin-7-yl)amino)pyrimidin-2-yl)amino)-5-methoxy-2-methylphenyl)piperidin-4-yl)-3-oxopiperazin-1-yl)ethyl)-2,6-difluorophenyl)piperidine-2,6-dione]
300 nM	396 nM	COc1cc(N2CCC(N3CCN(CCN4CCC(c5ccc(NC6CCC(=O)NC6=O)cc5)CC4)CC3)CC2)c(C)cc1Nc1ncc(Br)c(Nc2cccc3c2N(S(C)(=O)=O)CC3)n1 (centres unmarked) [Example 157, 3-((4-(1-(2-(4-(1-(4-((5-bromo-4-((1-(methylsulfonyl)indolin-7-yl)amino)pyrimidin-2-yl)amino)-5-methoxy-2-methylphenyl)piperidin-4-yl)piperazin-1-yl)ethyl)piperidin-4-yl)phenyl)amino)piperidine-2,6-dione]
66 nM	27 nM	COc1cc(N2CCC(N3CCN(CCc4ccc(NC5CCC(=O)NC5=O)cc4)CC3)CC2)c(C)cc1Nc1ncc(Br)c(Nc2cccc3c2N(S(C)(=O)=O)CC3)n1 (centres unmarked) [Example 152, 3-((4-(2-(4-(1-(4-((5-bromo-4-((1-(methylsulfonyl)indolin-7-yl)amino)pyrimidin-2-yl)amino)-5-methoxy-2-methylphenyl)piperidin-4-yl)piperazin-1-yl)ethyl)phenyl)amino)piperidine-2,6-dione]
14 nM	19 nM	COc1cc(N2CCC(N3CCN(C(=O)C4CCN(c5cc(F)c(C6CCC(=O)NC6=O)c(F)c5)C4)CC3)CC2)c(C)cc1Nc1ncc(Br)c(Nc2cccc3c2N(S(C)(=O)=O)CC3)n1 (centres unmarked) [Example 187, 3-(4-(3-(4-(1-(4-((5-bromo-4-((1-(methylsulfonyl)indolin-7-yl)amino)pyrimidin-2-yl)amino)-5-methoxy-2-methylphenyl)piperidin-4-yl)piperazine-1-carbonyl)pyrrolidin-1-yl)-2,6-difluorophenyl)piperidine-2,6-dione]
27 nM	33 nM	COc1cc(N2CCC(N3CCN(CC4CN(c5cc(F)c(C6CCC(=O)NC6=O)c(F)c5)C4)CC3)CC2)c(C)cc1Nc1ncc(Br)c(Nc2cccc3c2N(S(C)(=O)=O)CC3)n1 (centres unmarked) [Example 184, 3-(4-(3-((4-(1-(4-((5-bromo-4-((1-(methylsulfonyl)indolin-7-yl)amino)pyrimidin-2-yl)amino)-5-methoxy-2-methylphenyl)piperidin-4-yl)piperazin-1-yl)methyl)azetidin-1-yl)-2,6-difluorophenyl)piperidine-2,6-dione]
52 nM	60 nM	COc1cc(N2CCC(N3CCN(C[C@@H]4CCN(c5ccc6c(c5)C(=O)N(C5CCC(=O)NC5=O)C6=O)C4)CC3)CC2)c(C)cc1Nc1ncc(Br)c(Nc2cccc3c2N(S(C)(=O)=O)CC3)n1 (stereo partly drawn) [Example 164, 5-((S)-3-((4-(1-(4-((5-bromo-4-((1-(methylsulfonyl)indolin-7-yl)amino)pyrimidin-2-yl)amino)-5-methoxy-2-methylphenyl)piperidin-4-yl)piperazin-1-yl)methyl)pyrrolidin-1-yl)-2-(2,6-dioxopiperidin-3-yl)isoindoline-1,3-dione]
19 nM	41 nM	COc1cc(N2CCC(N3CCN(C(=O)[C@H]4C[C@H](N(C)c5ccc6c(c5)C(=O)N(C5CCC(=O)NC5=O)C6=O)C4)CC3)CC2)c(C)cc1Nc1ncc(Br)c(Nc2cccc3c2N(S(C)(=O)=O)CC3)n1 (some centres unmarked) [Example 158, 5-(((1r,3r)-3-(4-(1-(4-((5-bromo-4-((1-(methylsulfonyl)indolin-7-yl)amino)pyrimidin-2-yl)amino)-5-methoxy-2-methylphenyl)piperidin-4-yl)piperazine-1-carbonyl)cyclobutyl)(methyl)amino)-2-(2,6-dioxopiperidin-3-yl)isoindoline-1,3-dione]
94 nM	65 nM	COc1cc(N2CCC(N3CCN(C[C@H]4C[C@H](N(C)c5ccc(C6CCC(=O)NC6=O)cc5)C4)CC3)CC2)c(C)cc1Nc1ncc(Br)c(Nc2cccc3c2N(S(C)(=O)=O)CC3)n1 (some centres unmarked) [Example 176, 3-(4-(((1r,3r)-3-((4-(1-(4-((5-bromo-4-((1-(methylsulfonyl)indolin-7-yl)amino)pyrimidin-2-yl)amino)-5-methoxy-2-methylphenyl)piperidin-4-yl)piperazin-1-yl)methyl)cyclobutyl)(methyl)amino)phenyl)piperidine-2,6-dione]
8 nM	23 nM	COc1cc(N2CCC(N3CCN(C(=O)C4CCN(c5ccc6c(c5)C(=O)N(C5CCC(=O)NC5=O)C6=O)CC4)CC3)CC2)c(C)cc1Nc1ncc(Cl)c(Nc2cccc3c2N(S(C)(=O)=O)CC3)n1 (centres unmarked) [Example 178, 5-(4-(4-(1-(4-((5-chloro-4-((1-(methylsulfonyl)indolin-7-yl)amino)pyrimidin-2-yl)amino)-5-methoxy-2-methylphenyl)piperidin-4-yl)piperazine-1-carbonyl)piperidin-1-yl)-2-(2,6-dioxopiperidin-3-yl)isoindoline-1,3-dione]
6 nM	15 nM	COc1cc(N2CCC(N3CCN(C(=O)C4CN(c5cc(F)c(C6CCC(=O)NC6=O)c(F)c5)C4)CC3)CC2)c(C)cc1Nc1ncc(Br)c(Nc2cccc3c2N(S(C)(=O)=O)CC3)n1 (centres unmarked) [Example 188, 3-(4-(3-(4-(1-(4-((5-bromo-4-((1-(methylsulfonyl)indolin-7-yl)amino)pyrimidin-2-yl)amino)-5-methoxy-2-methylphenyl)piperidin-4-yl)piperazine-1-carbonyl)azetidin-1-yl)-2,6-difluorophenyl)piperidine-2,6-dione]
19 nM	56 nM	COc1cc(N2CCC(N3CCN(CCc4cc(F)c(C5CCC(=O)NC5=O)cc4F)CC3)CC2)c(C)cc1Nc1ncc(Br)c(Nc2cccc3c2N(S(C)(=O)=O)CC3)n1 (centres unmarked) [Example 155, 3-(4-(2-(4-(1-(4-((5-bromo-4-((1-(methylsulfonyl)indolin-7-yl)amino)pyrimidin-2-yl)amino)-5-methoxy-2-methylphenyl)piperidin-4-yl)piperazin-1-yl)ethyl)-2,5-difluorophenyl)piperidine-2,6-dione]
225 nM	> 10000 nM	COc1cc(N2CCC(N3CCN(C4CCN(c5ccc6c(c5)C(=O)N(C5CCC(=O)NC5=O)C6=O)CC4)CC3)CC2)c(C)cc1Nc1ncc(Br)c(Nc2cccc3c2N(S(C)(=O)=O)CC3)n1 (centres unmarked) [Example 167, 5-(4-(4-(1-(4-((5-bromo-4-((1-(methylsulfonyl)indolin-7-yl)amino)pyrimidin-2-yl)amino)-5-methoxy-2-methylphenyl)piperidin-4-yl)piperazin-1-yl)piperidin-1-yl)-2-(2,6-dioxopiperidin-3-yl)isoindoline-1,3-dione]
6 nM	27 nM	COc1cc(N2CCC(N3CCN(CCC4CCN(c5cc(F)c(C6CCC(=O)NC6=O)c(F)c5)CC4)CC3=O)CC2)c(C)cc1Nc1ncc(Br)c(Nc2cccc3c2N(S(C)(=O)=O)CC3)n1 (centres unmarked) [Example 186, 3-(4-(4-(2-(4-(1-(4-((5-bromo-4-((1-(methylsulfonyl)indolin-7-yl)amino)pyrimidin-2-yl)amino)-5-methoxy-2-methylphenyl)piperidin-4-yl)-3-oxopiperazin-1-yl)ethyl)piperidin-1-yl)-2,6-difluorophenyl)piperidine-2,6-dione]
